# Source: US20250275991A1, “ORAL COMPLEMENT FACTOR D INHIBITORS” (BioCryst Pharmaceuticals, Inc, priority 2019, published 2025)
# Target: Factor D (Homo sapiens, UniProt P00746)
# Assay: Factor D esterolytic assay
# Assay type: biochemical
# Details: substrate Z-Lys-SBzl 1.29 mM, 100 mM HEPES, 500 mM NaCl, pH 7.5, 10% DMSO, tested a minimum of three times
# Description: The IC50 value of a compound (i.e., the concentration of the compound that inhibits 50% of the enzymatic activity) was calculated according to the procedure reported in U.S. Pat. No. 6,653,340 B1, e.g., column 74 (incorporated by reference).
# Specifically, the compounds were dissolved in a stock solution of DMSO at 10.0 or 100 mM. A portion of this stock solution was added to assay buffer in a final volume of 50 μL. Controls included buffer alone and enzyme solutions to which DMSO was added. Substrate was added to the reaction wells immediately or after incubation at room temperature. The reaction rates were measured spectrophotometrically by the generation of product at 405 nm for 600 sec. Background absorbance at 690 nm was measured and subtracted from the absorbance at 405 nm for each well.
# The reaction rate for enzyme alone was compared to the rate of enzyme in the presence of inhibitor and the percent inhibition was calculated as shown below: […]
# An established esterolytic assay for the measurement of Factor D activity and inhibition of Factor D activity was used (Kam, C. M.; McRae, B. J.; Harper, J. W.; Niemann, M. A.; Volanakis, J. E.; Powers, J. C. Human complement proteins D, C2, and B Active site mapping with peptide thioester substrates. J Biol. Chem. 1987, 262, 3444-3451). For this assay Z-Lys-SBzl, 1.29 mM (Kim, S.; Narayana, S. V. L; Volanakis, J. E. Mutational analysis of the substrate binding site of human complement Factor D. Biochemistry. 1994, 33, 14393-14399.) was used as the substrate for Factor D ([…]). Hydrolysis of this compound by Factor D liberated a free sulfhydryl group which is then reacted with 5,5′-dithiobis(2nitrobenzoic acid) producing an intense yellow color (Habeeb, A. F. S. A. Reaction of protein sulfhydryl groups with Ellman's Reagent. Methods in Enzymol. 1976, 25, 457-464). The assays were performed in 96 well microtiter plates and rates of hydrolysis were monitored at 405 nm on a Biotek Synergy H1 plate reader. Hydrolysis rates were reported as change in mOD/min. The assay was conducted in 100 mM HEPES, 500 mM NaCl, pH 7.5 containing 10% DMSO in a final volume of 50 μL per well.
# An IC50, a compound concentration which inhibits 50% of the enzymatic activity, was calculated. Compounds in the examples were tested a minimum of three times.
# Chain of Factor D (P00746 26-253): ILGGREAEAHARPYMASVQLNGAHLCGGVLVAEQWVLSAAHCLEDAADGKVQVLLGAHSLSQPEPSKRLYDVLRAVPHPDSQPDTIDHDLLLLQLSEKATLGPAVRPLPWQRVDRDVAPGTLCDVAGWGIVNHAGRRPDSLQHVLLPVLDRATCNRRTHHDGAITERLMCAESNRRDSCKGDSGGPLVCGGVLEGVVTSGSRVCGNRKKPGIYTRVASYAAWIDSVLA
row,IC50,Compound
1,< 1000 nM,"CC(=O)c1ccc(CC(=O)O)c(OCc2cc(-c3ccnc(CN)c3F)c3occ(C(F)(F)F)c3c2)c1 [Compound 13f, 2-(4-acetyl-2-((7-(2-(aminomethyl)-3-fluoropyridin-4-yl)-3-(trifluoromethyl)benzofuran-5-yl)methoxy)phenyl)acetic acid]"
2,< 1000 nM,"CCOC(=O)NCc1cc2cc(COc3ccccc3CC(=O)O)cc(-c3cccc(CN)c3)c2o1 [Compound 25h, 2-(2-((7-(3-(aminomethyl)phenyl)-2-(((ethoxycarbonyl)amino)methyl)benzofuran-5-yl)methoxy)phenyl)acetic acid]"
3,< 1000 nM,"NCc1cccc(-c2cc(COc3cc(OC(F)(F)F)ccc3CC(=O)O)cc3ccoc23)c1 [Compound 10d, 2-(2-((7-(3-(aminomethyl)phenyl)benzofuran-5-yl)methoxy)-4-(trifluoromethoxy)phenyl)acetic acid]"
4,< 1000 nM,"Cn1ccc(COc2c(COc3ccccc3CC(=O)O)cc(-c3cccc(CN)c3)c3occc23)n1 [Compound 79g, 2-(2-((7-(3-(aminomethyl)phenyl)-4-((1-methyl-1H-pyrazol-3-yl)methoxy)benzofuran-5-yl)methoxy)phenyl)acetic acid]"
5,> 10000 nM,"NCc1cccc(-c2cc(COc3ccccc3)cc3ccoc23)c1 [Compound 83b, (3-(5-(phenoxymethyl)benzofuran-7-yl)phenyl)methanamine]"
6,> 10000 nM,"NCc1cc(-c2cc(COc3ccccc3CC(=O)O)cc3ccoc23)co1 [Compound 50e, 2-(2-((7-(5-(aminomethyl)furan-3-yl)benzofuran-5-yl)methoxy)phenyl)acetic acid]"
7,1000 to 10000 nM,"NC(CC(F)(F)F)c1cccc(-c2cc(COc3ccccc3CC(=O)O)cc3ccoc23)c1 (stereo not drawn) [Compound 41e, 2-(2-((7-(3-(1-amino-3,3,3-trifluoropropyl)phenyl)benzofuran-5-yl)methoxy)phenyl)acetic acid]"

# The next lines start with the molecule.
row,Compound,IC50
1,"CC(=O)c1ccc(CC(=O)O)c(OCc2cc(-c3ccnc(CN)c3F)c3oc(F)cc3c2)c1 [Compound 75d, 2-(4-acetyl-2-((7-(2-(aminomethyl)-3-fluoropyridin-4-yl)-2-fluorobenzofuran-5-yl)methoxy)phenyl)acetic acid]",< 1000 nM
2,"NCc1cccc(-c2cc(COc3cc(CN)ccc3CC(=O)O)cc3c(C(F)(F)F)coc23)c1 [Compound 31d, 2-(4-(aminomethyl)-2-((7-(3-(aminomethyl)phenyl)-3-(trifluoromethyl)benzofuran-5-yl)methoxy)phenyl)acetic acid]",< 1000 nM
3,"NCc1cccc(-c2cc(COc3ccc(F)cc3CC(=O)O)cc3cc(F)oc23)c1F [Compound 18c, 2-(2-((7-(3-(aminomethyl)-2-fluorophenyl)-2-fluorobenzofuran-5-yl)methoxy)-5-fluorophenyl)acetic acid]",< 1000 nM
4,"CC(=O)NCc1ccc(CC(=O)O)c(OCc2cc(-c3cccc(CN)c3)c3occc3c2)c1 [Compound 30c, 2-(4-(acetamidomethyl)-2-((7-(3-(aminomethyl)phenyl)benzofuran-5-yl)methoxy)phenyl)acetic acid]",< 1000 nM
5,"CCNCc1cccc(-c2cc(COc3ccccc3CC(=O)O)cc3ccoc23)c1 [Compound 21c, 2-(2-((7-(3-((ethylamino)methyl)phenyl)benzofuran-5-yl)methoxy)phenyl)acetic acid]",< 1000 nM
6,"NCc1cc(-c2cc(COc3ccccc3CC(=O)O)cc3ccoc23)c[nH]1 [Compound 8g, 2-(2-((7-(5-(aminomethyl)-1H-pyrrol-3-yl)benzofuran-5-yl)methoxy)phenyl)acetic acid]",1000 to 10000 nM
7,"CC(N)c1nc(-c2cc(COc3ccccc3CC(=O)O)cc3ccoc23)cs1 (stereo not drawn) [Compound 7e, 2-(2-((7-(2-(1-aminoethyl)thiazol-4-yl)benzofuran-5-yl)methoxy)phenyl)acetic acid]",1000 to 10000 nM
8,"NCc1nccc(-c2cc(COc3cc(C(F)(F)F)ccc3CC(=O)O)cc3ccoc23)c1F [Compound 56f, 2-(2-((7-(2-(aminomethyl)-3-fluoropyridin-4-yl)benzofuran-5-yl)methoxy)-4-(trifluoromethyl)phenyl)acetic acid]",< 1000 nM
